Source: patent US20260345838A1, “IDENTIFICATION AND/OR TREATMENT OF CANCER” (CLARITY PHARMACEUTICALS LIMITED, priority 2022, published 2026)
Several values for one entry are separate records, joined by “and”; a condition that tells them apart may be missing. Equal entries are not always repeated.

What was measured:
[1] = system: metastatic ER+/PR+/HER2− breast cancer; test: PET imaging in women with metastatic ER+/PR+/HER2− breast cancer; assay type: in vivo, human
Method: Example 5—Administration of ^64Cu-Sar-BBN for Radioimaging
(§1) A dose of 200 MBq ^64Cu-Sar-BBN was administered to a subject by slow intravenous bolus injection. The subject was imaged by PET/CT and the images analysed to determine the location, size and volume of any cancerous lesions present, which is indicated by the decay products of the ^64Cu radioisotope detected.
Women with clinical progression of metastatic ER+/PR+/HER2− breast cancer requiring re-staging were administered ^18FDG and images of each patient acquired by PET. Imaging with ^64Cu-Sar-BBN PET (with 200 MBq ^64Cu-Sar-BBN administered by IV injection) was performed within 2 weeks of imaging by ^18FDG. Qualitative interpretation of the PET studies was performed by accredited nuclear medicine physicians. Quantitative analysis was performed using MIM Software, Cleveland. Comparison of the images obtained from each subject after administration of both ^18FDG and ^64Cu-Sar-BBN can be seen in FIGS. 1 to 6 (see Table 1).

[2] = system: prostate cancer; test: PET imaging in post-radical prostatectomy prostate cancer patients with serial negative PSMA-PET; assay type: in vivo, human; settings: FIGS. 7 to 10
Method: as §1
All patients received on average 200 MBq of [^64Cu]Cu-SAR-BBN intravenously with 60 minutes for uptake. Patient were scanned at 60-180 minutes post-injection with arms up, from vertex to mid thighs and at each bed position for two minutes. A low dose CT scan was performed with for attenuation correction and anatomical localisation. Comparison of the images obtained from each subject after administration of both ^18FDG and ^64Cu-Sar-BBN can be seen in FIGS. 7 to 10.

[3] = system: metastatic ER+/PR+/HER2− breast cancer; settings: compared to triple negative subtypes; cited from earlier work
[4] = 18FDG PET, per patient, listed as FDG

Row | Structure (SMILES) | FDG SUVmax [1, 4] | FDG TTV (total tumor volume) [1, 4] | lesion detection compared with the other imaging ([1]; breast cancer patients, FIGS. 1 to 6) | number of lesions identified ([1]; patient of FIG. 4) | lesion detection [2] | sensitivity of 18FDG-PET for ER+/PR+ breast cancer [3]
1 | OC[C@H]1OC(O)[C@H]([18F])[C@@H](O)[C@@H]1O (stereo partly shown) [^18FDG] | 7 (2×) and 20 and <3 and 8 and 11 | 91 and 168 and 0 and 8 and 2 and 504 | did not reveal any tumors | less than 3 | failed to identify any recurrent lesions | lower sensitivity for ER+/PR+ breast cancer, when compared to triple negative
2 | O=C(O)CCc1ccc(O)c(CN(CCN(CC(=O)O)Cc2cc(CCC(=O)NCCCCCC(=O)NCCCC[C@H](NC(=O)N[C@@H](CCC(=O)O)C(=O)O)C(=O)O)ccc2O)CC(=O)O)c1.[Ga+3] [^68Ga-PSMA-11] |  |  |  |  | serial negative PSMA-PET | 
